Measured values published in US12702148B2, “Acetylcholinesterase inhibitor” (Taiko Pharmaceutical Co., Ltd., priority 2019, dated 2026).
pIC50: −log10 of the molar value. Read-outs that look alike come from different tables or passages of the source.

Columns and labels:
[1] = target: T1, Acetylcholinesterase from Electrophorus electricus (electric eel) Type VI-S (Electrophorus electricus, UniProt O42275); assay: biochemical
T1 construct: purchased Sigma-Aldrich C3389-500UN
Method: 2. Reagents 2.1 AchE Enzyme • Name: Acetylcholinesterase from Electrophorus electricus (electric eel) Type VI-S • Serial number: C3389-500UN • Obtained from: Sigma-Aldrich • Storage condition: Frozen (−20° C.) 2.2 AchE Activity Measurement Kit • Name: Acetylcholinesterase Activity Assay Kit • Serial number: MAK119 • Obtained from: Sigma-Aldrich • Storage condition: Room temperature 2.3 Solvent • Name: UltraPure 1M Tris-HCL pH 7.5 • Serial number: 15567-027 • Obtained from: Invitrogen • Storage condition: Refrigerated (4° C.) 2.4 Water
AchE enzyme (lyophilized powder) 2 mg (500 units) was dissolved in 2 mL of Tris-HCL Buffer pH 7.5 prepared to a concentration of 20 mM. This was then further diluted 30-folds with ultrapure water to prepare to a concentration of 33.3 μg/mL.
Two mg of the reagent included in the AchE activity measurement kit was weighed, dissolved in 200 mL of the assay buffer, and the working solution was obtained.
Measurement was carried out according to the following order. • 1) AchE enzyme solution (33.3 μg/mL) is mixed with test substance 1 solution (5 mg/mL) and ultrapure water according to the following Table 1.
(§1) • 2) The mixture is allowed to react in a thermobath at 37° C. for 10 minutes. • 3) 200 μL each of ultrapure water is added to 4 wells (n=4) of a 96-well microplate (blank wells.) • 4) 200 μL each of the calibrator included in the AchE activity measurement kit is added to 4 wells (n=4) different from those in Procedure 3) (calibrator wells.) • 5) 190 μL each of the working solution is added to yet another 24 wells (6 samples×4) (sample wells.) • 6) To the wells with the working solution added, 10μ each of post-reaction solutions No. 1-6 obtained in Procedure 2) is added to 4 wells (n=4) each. • 7) The plates are lightly tapped to allow mixing, reacted for 2 minutes at room temperature, and then absorbance at 412 nm is read with a microplate reader. • 8) This is allowed to react for another 8 minutes at room temperature (a total of 10 minutes), and then the absorbance at 412 nm is measured.
Measurement was carried out according to the following order. • 1) AchE enzyme solution (33.3 μg/mL) is mixed with test substance 2 solution (800 μg/mL) and ultrapure water according to the following Table 2.
as §1, with “measured. 6. Data Processing” for “measured.”
Employing the absorbance values obtained, the AchE activity (units/mL) was calculated by the formula below, and the average value and standard deviation of the AchE activity (units/mL) for each test substance at each concentration was calculated.
[formula] • (A412) final: Absorbance value at 412 nm after 10 minutes of reaction • (A412) initial Absorbance value at 412 nm after 2 minutes of reaction • n: Dilution coefficient (n=120) 0.2: Coefficient by Calibrator
Moreover, employing the AchE activity for the test substance at each concentration, One phase exponential decay curve was obtained by GraphPad Prism, and the IC50 value (mg/mL) was calculated.

[2] = target: T1, Acetylcholinesterase from Electrophorus electricus (electric eel) Type VI-S; assay type: biochemical; settings: n=3, average value

T1 sequence (O42275 24-633): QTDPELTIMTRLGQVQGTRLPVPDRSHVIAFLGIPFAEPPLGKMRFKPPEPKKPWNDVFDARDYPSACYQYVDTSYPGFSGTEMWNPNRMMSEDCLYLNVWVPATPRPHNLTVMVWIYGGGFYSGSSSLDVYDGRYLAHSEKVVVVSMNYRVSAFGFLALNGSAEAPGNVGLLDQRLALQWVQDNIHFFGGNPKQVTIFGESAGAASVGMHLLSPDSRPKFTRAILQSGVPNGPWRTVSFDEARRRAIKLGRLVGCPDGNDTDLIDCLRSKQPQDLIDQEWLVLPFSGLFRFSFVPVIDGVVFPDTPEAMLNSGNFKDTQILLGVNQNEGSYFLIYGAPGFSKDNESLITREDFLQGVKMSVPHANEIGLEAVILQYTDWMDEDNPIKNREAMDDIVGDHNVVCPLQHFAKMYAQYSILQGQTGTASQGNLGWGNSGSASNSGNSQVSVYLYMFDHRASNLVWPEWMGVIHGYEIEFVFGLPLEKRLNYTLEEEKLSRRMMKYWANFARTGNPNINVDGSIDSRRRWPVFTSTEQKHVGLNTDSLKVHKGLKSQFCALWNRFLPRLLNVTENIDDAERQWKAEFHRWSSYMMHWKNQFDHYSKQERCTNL

For `COc1ccccc1O` [GUA, Guaiacol], the IC50 ([1]; nonlinear regression curve of AchE activity at each concentration (GraphPad Prism), read-out: IC50 value (converted)) was 137 mM, the inhibition at 200 µM ([1]; read-out: Inhibitory rate) was 3% and the inhibition at 700 µM ([1]; read-out: Inhibitory rate) was 3.9%. For the same compound, the inhibition at 2000 µM ([1]; read-out: Inhibitory rate) was 2.2%, the inhibition at 7000 µM ([1]; read-out: Inhibitory rate) was 19.9% and the inhibition at 20000 µM ([1]; read-out: Inhibitory rate) was 58.8%. It also gave a pIC50 ([1]; regression curve by GraphPad Prism, Example 2, read-out: IC50) of 1.77, an AchE activity ([2]; GUA concentration 0.2 mM) of 24.89 units/mL and an AchE activity ([2]; GUA concentration 0.7 mM) of 24.64 units/mL. It also gave an AchE activity ([2]; GUA concentration 2 mM) of 25.09 units/mL, an AchE activity ([2]; GUA concentration 7 mM) of 20.54 units/mL and an AchE activity ([2]; GUA concentration 20 mM) of 10.56 units/mL.
